Experimental data taken from patent US7871794B2, “Enhanced cell-free synthesis of active proteins containing disulfide bonds” (The Board of Trustees of the Leland Stanford Junior …, priority 2007, dated 2011).

Legend:
reduction of GSSG = experiment: Assay for the reduction of oxidized glutathione in PANOx-SP cell-free reactions; assay type: biochemical, E. coli
Procedure: For determining the effect of pH and IAM concentration on GSSG stabilization, the pH of S30 extracts was adjusted by first adding a small volume of 10 M KOH or HCl to the bottom of an Eppendorf tube. A much larger volume of S30 extract was then rapidly mixed with the small volume of acid or base. The pH was measured with a standardized micro-pH probe (Model 9810BN, Orion, Beverly, Mass.). Several 15 μL PANOx-SP reactions supplemented with 5 mM GSSG and the pK7CAT plasmid were prepared at each pH and IAM concentration. Single reactions were terminated at 15, 38, 60, 90, 120, and 180 minutes for each condition, and the concentration of SH groups was measured as described below.
Assay for the Reduction of Oxidized Glutathione. The reduction of oxidized glutathione was measured by monitoring the increase in concentration of sulfhydryl groups over time. The entire 15 μL in vitro synthesis reaction was diluted with an equal volume of 10% trichloroacetic acid and centrifuged for 10 minutes at 12,000×g and 4° C. Ten microliters of the supernatant was added to wells of a 96-well microtiter plate. To each well, 90 μL of 1 M Tris-HCl (pH 7.8) with 0.44 mg/mL DTNB (5,5′-dithiobis-2-nitrobenzoic acid, TCI America) was added. After 3 minutes at room temperature, the absorbance at 412 nm was measured and the concentration of free thiols determined by comparison to a standard curve determined with GSH solutions of known concentration.

[1] = target: T1, thioredoxin reductase (TrxB) (Escherichia coli, UniProt P0A9P4); experiment: Assay for thioredoxin reductase activity after IAM treatment at various pHs; assay type: biochemical, E. coli; conditions: 7 mM IAM, 30 minutes at room temperature
T1 construct: made in house; host or cells: cell-free (in vitro) synthesis reaction, E. coli extract
Procedure: Assay for Thioredoxin Reductase Activity. Thioredoxin reductase was produced in in vitro synthesis reactions as described previously (Knapp and Swartz (2004) FEBS Lett 559:66-70). The pHs of aliquots of the unpurified reaction product were adjusted to the desired values with small volumes of concentrated KOH or HCl. These aliquots were then mixed with a small volume of IAM concentrate to obtain a final IAM concentration of 7 mM. These samples were incubated at room temperature for 30 minutes, and then the thioredoxin reductase activity of the samples was measured. The activity assay for thioredoxin reductase contained the following components: 50 mM NaH2PO4 pH 7.6, 1.5 mM EDTA, 10 mM glucose 6-phosphate, 200 μM DTNB, 300 μM NADPH, 3 μM E. coli thioredoxin (EMD Biosciences; Darmstadt, Germany), and 0.2 U glucose 6-phosphate dehydrogenase (Sigma). Approximately 500 ng of thioredoxin reductase was added to 1 mL of the assay mixture and the rate of increase in absorbance at 412 nm was measured for 90 seconds at 37° C. DTNB produces two molecules of nitrothiobenzoate when it is reduced. The extinction coefficient of nitrothiobenzoate (13,600 M^−1 cm^−1) was used to calculate the rate of reaction.

T1 sequence (P0A9P4 whole entry): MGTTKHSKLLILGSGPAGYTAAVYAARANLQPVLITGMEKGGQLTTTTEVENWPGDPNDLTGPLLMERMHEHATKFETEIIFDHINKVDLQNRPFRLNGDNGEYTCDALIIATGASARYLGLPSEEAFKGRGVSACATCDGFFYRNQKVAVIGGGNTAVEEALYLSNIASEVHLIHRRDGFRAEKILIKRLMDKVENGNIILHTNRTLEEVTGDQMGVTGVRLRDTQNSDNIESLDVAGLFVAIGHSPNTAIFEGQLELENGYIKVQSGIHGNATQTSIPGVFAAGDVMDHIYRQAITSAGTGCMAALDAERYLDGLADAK

`NC(=O)CI` [IAM, iodoacetamide] was tested. Which “effect on sulfhydryl groups at IAM concentrations greater than 50 μM” value (reduction of GSSG; KGK10 extract) did it give?
The value was “slow rate of oxidation of sulfhydryls”.

What about the “IAM concentration sufficient to eliminate the reduction of GSSG” value (reduction of GSSG; KGK10 extract, IAM treatment near physiological pH) of the same compound?
The value was 50 µM.

And the “IAM needed to stabilize the oxidized glutathione buffer, KGK10 extract versus KC6 extract” value (reduction of GSSG; in vitro synthesis reactions containing 5 mM GSSG)?
The value was “Twenty-fold less”.

And the “pH at which IAM inactivation of TrxB begins to lose its effectiveness” value [1]?
The value was roughly 5.8.
